Assays:
[1] = target: T1, Arabidopsis HPPD variant M335H, P336A (Arabidopsis thaliana, UniProt P93836, M335H/P336A); assay: HPPD activity assay, Arabidopsis HPPD mutant M335H, P336A; format: biochemical; settings: normalized on Arabidopsis wild-type HPPD
T1 construct: PCR-based site directed mutagenesis of pEXP5-NT/TOPO®-AtHPPD is done; His6 (N); made in house; host or cells: E. coli BL21 (DE3)
Protocol: HPPD produces homogentisic acid and CO2 from 4-hydroxyphenylpyruvate (4-HPP) and O2. The activity assay for HPPD is based on the analysis of homogentisic acid by reversed phase HPLC.
The assay mixture can contain 150 mM potassium phosphate buffer pH 7.0, 50 mM L-ascorbic acid, 1 μM FeSO4 and 7 μg of purified enzyme in a total volume of 1 ml.
Inhibitors are dissolved in DMSO (dimethylsulfoxide) to a concentration of 20 mM or 0.5 mM, respectively. From this stock solution serial five-fold dilutions are prepared in DMSO, which are used in the assay. The respective inhibitor solution accounts for 1% of the assay volume. […] After a preincubation of 30 min the reaction is started by adding 4-HPP to a final concentration of 0.1 mM. The reaction is allowed to proceed for 120 min at room temperature. The reaction is stopped by addition of 100 μl of 4.5 M phosphoric acid.
Activities are normalized by setting the uninhibited enzyme activity to 100%. IC50 values are calculated using non-linear regression.
The assay mixture can contain 150 mM potassium phosphate buffer pH 7.0, 50 mM L-ascorbic acid, 100 μM Catalase (Sigma-Aldrich), 1 μM FeSO4 and 0.2 units of purified HPPD enzyme in a total volume of 505 μl. 1 unit is defined as the amount of enzyme that is required to produce 1 nmol of HGA per minute at 20° C.
Inhibitors are dissolved in DMSO (dimethylsulfoxide) to a concentration of 0.5 mM. […] IC50 values are calculated using non-linear regression. […]
Purified, mutant HPPD enzymes are obtained by the methods described above. […] Apparent michaelis constants (Km) and maximal reaction velocities (Vmax) are calculated by non-linear regression with the software GraphPad Prism 5 (GraphPad Software, La Jolla, USA) using a substrate inhibition model.
Field performance of the optimized HPPD enzyme, which is used as a herbicide tolerance trait may depend not only on its lack of sensitivity towards HPPD inhibiting herbicides but also on its activity. To assess the potential performance of a herbicide tolerance trait a tolerance index (TI) is calculated using the following formula: […]

[2] = system: transgenic soybean plants, Arabidopsis M335Y, event SDS-9866; assay: Greenhouse testing of transgenic soybean plants, Arabidopsis M335Y; format: in vivo, Glycine max; settings: soybean SDS-9866, 5 days after herbicide treatment, average of 8 T1
From the text: Various methods for the production of stably transformed plants are well known in the art. Coumarone-derivative herbicide tolerant soybean (Glycine max) or corn (Zea mays) plants can be produced by a method described by Olhoft et al. (US patent 2009/0049567). Briefly, HPPD or HST encoding polynucleotides are cloned into a binary vector using standard cloning techniques as described by Sambrook et al. (Molecular cloning (2001) Cold Spring Harbor Laboratory Press). The final vector construct contains an HPPD or HST encoding sequence flanked by a promoter sequence (e.g. the ubiquitin promoter (PcUbi) sequence) and a terminator sequence (e.g. the nopaline synthase terminator (NOS) sequence) and a resistance marker gene cassette (e.g. AHAS) (FIG. 2). Optionally, the HPPD or HST gene can provide the means of selection. Agrobacterium-mediated transformation is used to introduce the DNA into soybean's axillary meristem cells at the primary node of seedling explants. After inoculation and co-cultivation with Agrobacteria, the explants are transferred to shoot induction medium without selection for one week. The explants are subsequently transferred to shoot induction medium with 1-3 μM imazapyr (Arsenal) for 3 weeks to select for transformed cells. Explants with healthy callus/shoot pads at the primary node are then transferred to shoot elongation medium containing 1-3 μM imazapyr until a shoot elongates or the explant dies. After regeneration, transformants are transplanted to soil in small pots, placed in growth chambers (16 hr day/8 hr night; 25° C. day/23° C. night; 65% relative humidity; 130-150 mE m−2 s−1) and subsequently tested for the presence of the T-DNA via Taqman analysis. After a few weeks, healthy, transgenic positive, single copy events are transplanted to larger pots and allowed to grow in the growth chamber. Transformation of corn plants is done by a method described by McElver and Singh (WO 2008/124495). Plant transformation vector constructs containing HPPD or HST sequences are introduced into maize immature embryos via Agrobacterium-mediated transformation. Transformed cells are selected in selection media supplemented with 0.5-1.5 μM imazethapyr for 3-4 weeks. Transgenic plantlets are regenerated on plant regeneration media and rooted afterwards. Transgenic plantlets are subjected to TaqMan analysis for the presence of the transgene before being transplanted to potting mixture and grown to maturity in greenhouse. Arabidopsis thaliana is transformed with HPPD or HST sequences by floral dip method as described by McElver and Singh (WO 2008/124495). Transgenic Arabidopsis plants are subjected to Tag Man analysis for analysis of the number of integration loci. Transformation of Oryza sativa (rice) are done by protoplast transformation as described by Peng et al. (U.S. Pat. No. 6,653,529)
Transgenic plants expressing heterologous HPPD or HST enzymes are tested for tolerance against coumarone-derivative herbicides in greenhouse experiments.
For post emergence treatment, the test plants are first grown to a height of 3 to 15 cm, depending on the plant habit, and only then treated with the herbicides. For this purpose, the test plants are either sown directly and grown in the same containers, or they are first grown separately and transplanted into the test containers a few days prior to treatment.
Depending on the species, the plants are kept at 10-25° C. or 20-35° C. The test period extends over 3 weeks. During this time, the plants are tended and their response to the individual treatments is evaluated. […] Tolerance to coumarone-derivative herbicides can also be assessed in Arabidopsis. In this case transgenic Arabidopsis thaliana plants are assayed for improved tolerance to coumarone-derivative herbicides in 48-well plates. Seeds are surface sterilized by stirring for 5 min in ethanol+water (70+30 by volume), rinsing one time with ethanol+water (70+30 by volume) and two times with a sterile, deionized water. […]

T1 sequence (P93836 whole entry M335H/P336A): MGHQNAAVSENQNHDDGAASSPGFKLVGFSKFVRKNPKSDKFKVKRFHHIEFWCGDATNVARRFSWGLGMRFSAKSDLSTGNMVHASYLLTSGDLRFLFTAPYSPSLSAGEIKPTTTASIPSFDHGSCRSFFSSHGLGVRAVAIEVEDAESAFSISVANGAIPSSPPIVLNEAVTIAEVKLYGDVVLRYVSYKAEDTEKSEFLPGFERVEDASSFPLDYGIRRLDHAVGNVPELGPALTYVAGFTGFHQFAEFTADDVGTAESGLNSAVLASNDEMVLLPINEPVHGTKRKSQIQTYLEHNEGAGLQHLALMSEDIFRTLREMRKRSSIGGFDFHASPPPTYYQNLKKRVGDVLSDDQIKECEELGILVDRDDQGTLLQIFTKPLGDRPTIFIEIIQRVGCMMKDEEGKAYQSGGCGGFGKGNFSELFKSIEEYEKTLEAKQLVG

| Compound | Normalized tolerance index TI [1] | Injury evaluation, scale of 1-100, bleaching phenotype ([2]; 2.5 g/ha) | Injury evaluation, scale of 1-100, bleaching phenotype ([2]; 10 g/ha) | Injury evaluation, scale of 1-100, bleaching phenotype ([2]; 40 g/ha) | Injury evaluation, scale of 1-100, bleaching phenotype ([2]; 6.25 g/ha) | Injury evaluation, scale of 1-100, bleaching phenotype ([2]; 25 g/ha) | Injury evaluation, scale of 1-100, bleaching phenotype ([2]; 100 g/ha) |
| --- | --- | --- | --- | --- | --- | --- | --- |
| CC1=NOC(c2c(Cl)ccc(C3=C(O)c4ncccc4C(C)(C)S3(=O)=O)c2Cl)C1 (centres unmarked) [Inhibitor 1, 7-[2,4-dichloro-3-(3-methyl-4,5-dihydroisoxazol-5-yl)phenyl]-5,5-dimethyl-6,6-dioxo-thiopyrano[4,3-b]pyridin-8-ol] | 1.9 |  |  |  |  |  |  |
| CC1(C)c2cccnc2C(O)=C(c2ccc(Cl)nc2Cl)S1(=O)=O [Inhibitor 2, 7-(2,6-dichloro-3-pyridyl)-5,5-dimethyl-6,6-dioxo-thiopyrano[4,3-b]pyridin-8-ol] | 2.8 | 4 | 5 | 10 |  |  |  |
| Cc1c(C(=O)c2cnn(C)c2O)ccc(S(C)(=O)=O)c1C1=NOCC1 [Topramezone, reference compound] |  |  |  |  | 4 | 8 | 23 |

From patent US20140357487A1, “PLANTS HAVING INCREASED TOLERANCE TO HERBICIDES” (BASF SE, priority 2011, published 2014)
